In patent US10323022B2, “Pyrrolidinyl urea, pyrrolidinyl thiourea and pyrrolidinyl guanidine compounds as TrkA kinase inhibitors” (Array BioPharma Inc., priority 2011, dated 2019):

Target: TrkA (Homo sapiens (Human), UniProt P04629)
Assay: TrkA Omnia Assay
Assay type: biochemical
Details: averaged IC50; 20 nM enzyme, 500 μM ATP, 10 μM peptide substrate
Method in brief: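 Continuous fluorescent kinase read-out (ex 360 nm, em 485 nm) over 70 min, with initial rates fitted to 4- or 5-parameter logistic curves for IC50. Final conditions: 500 μM ATP, 10 μM Omnia Tyr Peptide #4, 20 nM TrkA, MOPS pH 7.5 buffer with MgCl2 and Triton X-100; enzyme and compound preincubated 10 min at ambient temperature.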

Sequence of TrkA (P04629 33-796): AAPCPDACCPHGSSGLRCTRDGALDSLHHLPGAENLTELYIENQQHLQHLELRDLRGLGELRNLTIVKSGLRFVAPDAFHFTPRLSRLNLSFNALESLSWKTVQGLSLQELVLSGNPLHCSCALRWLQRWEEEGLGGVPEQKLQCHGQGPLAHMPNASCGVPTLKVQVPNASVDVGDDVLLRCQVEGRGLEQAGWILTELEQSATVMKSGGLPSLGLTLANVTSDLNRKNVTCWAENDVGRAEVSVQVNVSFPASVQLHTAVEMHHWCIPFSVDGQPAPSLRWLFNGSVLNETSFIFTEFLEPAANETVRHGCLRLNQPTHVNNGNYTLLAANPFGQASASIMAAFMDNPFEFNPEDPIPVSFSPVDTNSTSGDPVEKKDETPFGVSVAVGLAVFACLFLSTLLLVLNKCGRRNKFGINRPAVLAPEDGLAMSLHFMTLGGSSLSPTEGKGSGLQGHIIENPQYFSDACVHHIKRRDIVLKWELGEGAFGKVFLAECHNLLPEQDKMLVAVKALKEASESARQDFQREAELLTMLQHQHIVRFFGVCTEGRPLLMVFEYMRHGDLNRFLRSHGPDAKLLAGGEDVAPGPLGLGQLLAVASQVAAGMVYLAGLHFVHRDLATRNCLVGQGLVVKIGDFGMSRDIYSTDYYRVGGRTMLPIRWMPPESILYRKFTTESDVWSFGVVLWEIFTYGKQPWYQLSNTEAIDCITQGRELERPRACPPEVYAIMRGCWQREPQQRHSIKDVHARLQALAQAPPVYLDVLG

Row | IC50 [nM] | SMILES
1 | < 100 | COCCN1C[C@@H](NC(=O)Nc2c(C)c(OCC(C)(C)O)nn2-c2ccccc2)[C@H](c2ccc(F)cc2)C1 [Example 362, 1-((3S,4R)-4-(4-fluorophenyl)-1-(2-methoxyethyl)pyrrolidin-3-yl)-3-(3-(2-hydroxy-2-methylpropoxy)-4-methyl-1-phenyl-1H-pyrazol-5-yl)urea]
2 | < 100 | COCCN1C[C@@H](NC(=O)Nc2cc(-c3ccc(C#N)cc3)nn2C)[C@H](c2ccc(F)c(F)c2)C1 [Example 60, 1-(3-(4-cyanophenyl)-1-methyl-1H-pyrazol-5-yl)-3-((3S,4R)-4-(3,4-difluorophenyl)-1-(2-methoxyethyl)pyrrolidin-3-yl)urea]
3 | < 100 | COCCN1C[C@@H](NC(=O)Nc2c(C)c(OCc3ncn(C)n3)nn2-c2ccccc2)[C@H](c2ccc(F)c(F)c2)C1 [Example 391, 1-((3S,4R)-4-(3,4-difluorophenyl)-1-(2-methoxyethyl)pyrrolidin-3-yl)-3-(4-methyl-3-((1-methyl-1H-1,2,4-triazol-3-yl)methoxy)-1-phenyl-1H-pyrazol-5-yl)urea]
4 | < 100 | COCCN1C[C@@H](NC(=O)Nc2c(C)c(Oc3cnccn3)nn2-c2ccccc2)[C@H](c2ccc(F)cc2)C1 [Example 603, 1-((3S,4R)-4-(4-fluorophenyl)-1-(2-methoxyethyl)pyrrolidin-3-yl)-3-(4-methyl-1-phenyl-3-(pyrazin-2-yloxy)-1H-pyrazol-5-yl)urea]
5 | < 100 | COCCN1C[C@@H](NC(=O)Nc2c(C)c(OC[C@H]3COC(C)(C)O3)nn2-c2ccccc2)[C@H](c2cc(F)cc(F)c2)C1 [Example 393, 1-((3S,4R)-4-(3,5-difluorophenyl)-1-(2-methoxyethyl)pyrrolidin-3-yl)-3-(3-(((S)-2,2-dimethyl-1,3-dioxolan-4-yl)methoxy)-4-methyl-1-phenyl-1H-pyrazol-5-yl)urea]
6 | 100 to 1000 | Cc1nn(-c2ccccc2)c(NC(=O)N[C@@H]2CN(CC(F)(F)F)C[C@H]2c2cccc(F)c2)c1C [Example 201, 1-(3,4-dimethyl-1-phenyl-1H-pyrazol-5-yl)-3-((3S,4R)-4-(3-fluorophenyl)-1-(2,2,2-trifluoroethyl)pyrrolidin-3-yl)urea]
7 | < 100 | COCCN1C[C@@H](NC(=O)Nc2c(Cl)c(COC)nn2-c2ccccc2)[C@H](c2ccc(F)cc2)C1 [Example 407, 1-(4-chloro-3-(methoxymethyl)-1-phenyl-1H-pyrazol-5-yl)-3-((3S,4R)-4-(4-fluorophenyl)-1-(2-methoxyethyl)pyrrolidin-3-yl)urea]
8 | < 100 | COCCN1C[C@@H](NC(=O)Nc2c(C)c(-c3cnn(C)c3)nn2-c2ccc(F)c(Cl)c2)[C@H](c2ccc(F)cc2)C1 [Example 322]
9 | 100 to 1000 | Cn1cc(CN2C[C@@H](NC(=O)Nc3c4c(nn3-c3ccccc3)CCC4)[C@H](c3ccc(F)c(F)c3)C2)nn1 [Example 253, 1-((3S,4R)-4-(3,4-difluorophenyl)-1-((1-methyl-1H-1,2,3-triazol-4-yl)methyl)pyrrolidin-3-yl)-3-(2-phenyl-2,4,5,6-tetrahydrocyclopenta[c]pyrazol-3-yl)urea]
10 | 100 to 1000 | COCCN1C[C@@H](NC(=O)Nc2cc(C(C)(C)C)nn2-c2ccc(F)cc2)[C@H](c2ccccc2)C1 (relative stereo) [Example 8, 1-(3-tert-butyl-1-(4-fluorophenyl)-1H-pyrazol-5-yl)-3-(trans-1-(2-methoxyethyl)-4-phenyl-pyrrolidin-3-yl)urea]
11 | 100 to 1000 | COCCN1C[C@@H](NC(=O)Nc2c(C)c(-c3cnc(C)cn3)nn2C)[C@H](c2ccc(F)c(F)c2)C1 [Example 153, 1-((3S,4R)-4-(3,4-difluorophenyl)-1-(2-methoxyethyl)pyrrolidin-3-yl)-3-(1,4-dimethyl-3-(5-methylpyrazin-2-yl)-1H-pyrazol-5-yl) urea]
12 | < 100 | COCCN1C[C@@H](NC(=O)Nc2cc(-c3ccccn3)nn2C)[C@H](c2cc(F)cc(F)c2)C1 [Example 56, 1-((3S,4R)-4-(3,5-difluorophenyl)-1-(2-methoxyethyl)pyrrolidin-3-yl)-3-(1-methyl-3-(pyridin-2-yl)-1H-pyrazol-5-yl)urea]
13 | < 100 | COCCN1C[C@@H](NC(=O)Nc2c(C)c(-c3cnn(C)c3)nn2-c2ccccc2)[C@H](c2ccncc2F)C1 [Example 346, 1-(1′,4-dimethyl-1-phenyl-1H,1′H-[3,4′-bipyrazol]-5-yl)-3-((3S,4R)-4-(3-fluoropyridin-4-yl)-1-(2-methoxyethyl)pyrrolidin-3-yl)urea]
14 | < 100 | COCCN1C[C@@H](NC(=O)Nc2c(C)c(-c3cnn(C)c3)nn2-c2ccccc2)[C@H](c2cc(F)c(F)c(F)c2)C1 [Example 443, 1-(1′,4-dimethyl-1-phenyl-1H, 1′H-[3,4′-bipyrazol]-5-yl)-3-((3S,4R)-4-(3,4,5-trifluorophenyl)-1-(2-methoxyethyl)pyrrolidin-3-yl)urea]
15 | 100 to 1000 | COc1ncccc1N1C[C@@H](NC(=O)Nc2c(Br)c(-c3ccccc3)nn2-c2ccccc2)[C@H](c2ccccc2)C1 [Example 247, 1-(4-bromo-1,3-diphenyl-1H-pyrazol-5-yl)-3-((3S,4R)-1-(2-methoxypyridin-3-yl)-4-phenylpyrrolidin-3-yl)urea]
16 | 100 to 1000 | COCCN1C[C@@H](NC(=O)Nc2cc(C(C)(C)CO)nn2-c2ccccc2)[C@H](c2ccccc2)C1 [Example 94, 1-(3-(1-hydroxy-2-methyl-propan-2-yl)-1-phenyl-1H-pyrazol-5-yl)-3-((3S,4R)-1-(2-methoxyethyl)-4-phenylpyrrolidin-3-yl)urea]
17 | < 100 | COCCN1C[C@@H](NC(=O)Nc2c(C)c(-c3cnn(C(C)C)c3)nn2-c2ccccc2)[C@H](c2ccc(F)cc2)C1 [Example 518, 1-((3S,4R)-4-(4-fluorophenyl)-1-(2-methoxyethyl)pyrrolidin-3-yl)-3-(1′-isopropyl-4-methyl-1-phenyl-1H, 1′H-[3,4′-bipyrazol]-5-yl)urea]
18 | < 100 | COCCN1C[C@@H](NC(=O)Nc2c(C)c(OC[C@@H](O)COC)nn2-c2ccccc2)[C@H](c2ccc(F)c(F)c2)C1 [Example 562, 1-((3S,4R)-4-(3,4-difluorophenyl)-1-(2-methoxyethyl)pyrrolidin-3-yl)-3-(3-((S)-2-hydroxy-3-methoxypropoxy)-4-methyl-1-phenyl-1H-pyrazol-5-yl)urea]
19 | < 100 | COCCN1C[C@@H](NC(=O)Nc2cc(C)nn2-c2ccccc2)[C@H](c2ccccc2)C1 (relative stereo) [Example 11, 1-(trans-1-(2-methoxyethyl)-4-phenylpyrrolidin-3-yl)-3-(3-methyl-1-phenyl-1H-pyrazol-5-yl)urea]
20 | < 100 | COCCN1C[C@@H](NC(=O)Nc2c(C)c(CCO)nn2-c2ccccc2)[C@H](c2cc(F)cc(F)c2)C1 [Example 286, 1-((3S,4R)-4-(3,5-difluorophenyl)-1-(2-methoxyethyl)pyrrolidin-3-yl)-3-(3-(2-hydroxyethyl)-4-methyl-1-phenyl-1H-pyrazol-5-yl)urea]
21 | < 100 | COCCN1C[C@@H](NC(=O)Nc2c(Cl)c(OC[C@@H](C)O)nn2-c2ccccc2)[C@H](c2ccc(F)cc2)C1 [Example 374, 1-(4-chloro-3-((R)-2-hydroxypropoxy)-1-phenyl-1H-pyrazol-5-yl)-3-((3S,4R)-4-(4-fluorophenyl)-1-(2-methoxyethyl)pyrrolidin-3-yl)urea]
